From patent US9868707B2, “Small molecule agonists of neurotensin receptor 1” (SANFORD-BURNHAM MEDICAL RESEARCH INSTITUTE, priority 2012, dated 2018) come the findings set out here.

This assay has as its target NTR1 (Homo sapiens, UniProt P30989). The assay is described as follows: NTR1 high-content imaging (HCS) dose response, NTR1-U2OS cells. Type of assay: cell-based. Also noted: host or cells: U2OS osteosarcoma. To be noted: n = 4 unless otherwise noted; for EC50: Ave. ± S.E.M., read-out: HCS NTR1 Potency EC50. An excerpt:
The cell lines utilized in the high-content imaging assays, which include the NTR1-, NTR2-, and GPR35-U2OS osteosarcomas, were obtained from the laboratory of Dr. Lawrence Barak at the Duke University Medical Center. The media used in the culture of the cell lines, as well as the assays themselves, consisted of Minimum Essential Medium (15-010-CM) and L-glutamine (25-005-CL) from Cellgro/Mediatech (Manassas, Va.), fetal bovine serum (SH30396.03) from Hyclone (Logan, Utah), penicillin-streptomycin solution (PS-20) from Omega Scientific in Tarzana, Calif., G418 (ant-gn-1) from Invivogen (San Diego, Calif.), and zeocin (R250-01) from Invitrogen (Carlsbad, Calif.). Cell lines were cultured in T225 tissue culture flasks (431082) supplied by Corning (Corning, N.Y.). Additional reagents employed include Dulbecco's Phosphate-Buffered Saline (DPBS) (21-031CV) from Cellgro/Mediatech, Trypsin-EDTA 0.05% (25300) from Invitrogen, paraformaldehyde (30528954) from Acros Organics (Geel, Belgium), Hoechst 33342 (H3570) from Invitrogen. The high-content assays were run in 1536-well plates (29326) supplied by Aurora Biotechnology (Poway, Calif.) and utilized aluminum plate seals (T592100) from E&K Scientific (Santa Clara, Calif.).
The neurotensin 1 peptide (N6383) from Sigma-Aldrich (St. Louis, Mo.) was used as a positive control in the NTR1 primary HCS assay. For the NTR2 selectivity assay, the non-specific, small molecule 3-(4-fluorophenyl)-7,8-dimethoxy-5-(4-methylbenzyl)-5H-pyrazolo[4,3-c]quinolone which was synthesized internally was used as a positive control. The GPR35 selectivity screen utilized zaprinast (ALX430-020-M010) from Alexis Biochemicals (Farmingdale, N.Y.) as a control.
The high-content imaging based NTR1 primary screen in 1536-well format was utilized to assay the MLSMR library of chemical entities in the following manner. On day one, 4 uL of a cell suspension containing 350,000 NTR1-U2OS cells per mL is added to each well of a 1536-well assay plate. Cells are plated in MEM medium containing 2.5% Fetal Bovine Serum, 1% Penicillin/Streptomycin solution, 1% L-Glutamine, 400 ug/mL G418, and 200 ug/mL Zeocin. The assay plates are then incubated overnight at 37° C., under 5% CO2. Following the overnight incubation, a volume of 60 nL of the compounds at 2 mM in DMSO (final 20 μM, 1% DMSO) was transferred to columns 5-48 of the assay plates using a LabCyte Echo Liquid Handler. Next, 60 nL of DMSO were dispensed to columns 1-4, which served as the positive and neutral control wells. […] The assay plates were centrifuged on an Eppendorf 5810 centrifuge at 1000 rpm for 1 min to ensure even liquid levels in the wells of the assay plates. The assay plates were then returned to the incubator for 1 hour. Following the hour-long incubation at 37° C., the cells in each well were fixed with 4 uL of 6% paraformaldehyde added with a Multidrop Combi. The assay plates were centrifuged as before and incubated at room temperature for 1 hour. On the Kalypsys, plates were then aspirated down to 2.5 uL per well and washed twice with 11 uL per well of DPBS, followed by a final aspiration to 2.5 uL per well. On the Combi dispenser, 5 uL of 5 ug/mL Hoechst 33342 diluted in DPBS was added to each well of assay plates. The plates were again centrifuged as previously described, sealed, and incubated for at least 1 hour prior to being loaded on a PerkinElmer Opera QEHS.
Image acquisition was performed with a 45 plate capacity loader/stacker and the following settings: 40×0.6 NA air objective, acquisition camera set to 2-by-2 binning for an image size of 688 by 512 pixels, beta-arrestin-GFP acquired using 488 nm laser excitation and 540/75 nm emission filters, DAPI (nuclei) using 365 nm Xenon lamp excitation and 450/50 nm emission filters, 3 fields per well. Image analysis was performed using the Acapella Spot Detection Algorithm. For analysis settings and the metrics employed in the data analyses, please refer to supplemental information.

[1] abbreviates: read-out: HCS NTR1 Potency Emax.

Like-named read-outs stand apart in the source and are kept apart here.

Chain of NTR1 (P30989 whole entry, species assumed): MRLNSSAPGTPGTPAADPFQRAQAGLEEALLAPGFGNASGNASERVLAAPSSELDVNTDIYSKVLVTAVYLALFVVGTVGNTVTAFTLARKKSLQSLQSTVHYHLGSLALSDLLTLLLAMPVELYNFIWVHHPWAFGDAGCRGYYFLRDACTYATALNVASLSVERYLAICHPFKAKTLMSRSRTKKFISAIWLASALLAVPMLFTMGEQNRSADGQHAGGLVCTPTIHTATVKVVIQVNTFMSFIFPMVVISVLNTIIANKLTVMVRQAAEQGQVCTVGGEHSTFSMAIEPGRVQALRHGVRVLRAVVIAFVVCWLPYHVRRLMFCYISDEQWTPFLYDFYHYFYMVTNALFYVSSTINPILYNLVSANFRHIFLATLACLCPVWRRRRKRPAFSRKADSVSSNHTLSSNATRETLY

For orientation: EC50 means the concentration giving half of the maximal effect. By Emax is commonly meant the greatest response seen or fitted, relative to the assay's reference. For the compound `COc1cc2nc(-c3ccccc3)nc(N3CCN(c4ccccc4OC)CC3)c2cc1OC` [6,7-di-OMe; phenyl; 2-OMe, 2-phenyl-6,7-dimethoxy-4-(4-(2-methoxyphenyl)piperazin-1-yl)quinazoline], the EC50 was 20 ± 10.7 µM. The Emax under setting [1] was 78%.

As to `COc1ccc2nc(C3CC3)nc(N3CCN(c4ccccc4OC)CC3)c2c1` [Compound 338, 2-cyclopropyl-6-methoxy-4-(4-(2-methoxyphenyl)piperazin-1-yl)quinazoline], the EC50 was found to be 4.1 ± 0.5 µM. Under setting [1], the Emax turned out to be 95.7%. With `COc1cc2nc(C3CC3)nc(N3CCN(Cc4ccc(C)cc4)CC3)c2cc1OC` [Compound 342, 2-cyclopropyl-6,7-dimethoxy-4-(4-(4-methylbenzyl)piperazin-1-yl)quinazoline], the EC50 came out at 25 ± 3.2 µM. `COc1cc2nc(C3CCC3)nc(N3CCN(c4ccccc4C)CC3)c2cc1OC` [Compound 323, 2-cyclobutyl-6,7-dimethoxy-4-(4-(o-tolyl)piperazin-1-yl)quinazoline]: the EC50 is 14.9 ± 3.2 µM. The Emax (heading: HCS NTR1 Potency Emax) turned out to be 91.6%. As to `COc1cc2nc(C3CCC3)nc(N3CCN(c4ccccn4)CC3)c2cc1OC` [Compound 326, 2-cyclobutyl-6,7-dimethoxy-4-(4-(pyridin-2-yl)piperazin-1-yl)quinazoline], the EC50 was determined as 25.5 ± 1.7 µM. Further, the Emax under setting [1] is 91.4%. For the compound `COc1ccccc1CN1CCN(c2nc(C3CC3)nc3cc(OC)c(OC)cc23)CC1` [Compound 343, 2-cyclopropyl-6,7-dimethoxy-4-(4-(2-methoxybenzyl)piperazin-1-yl)quinazoline], the EC50 was 34.9 ± 4.4 µM. Besides, the Emax under setting [1] was found to be 100%.
